In US6713265B1 (Synaptic Pharmaceutical Corporation, priority 1999, dated 2004):

What was measured:
human Y4 receptor = target: T1, human Y4 receptor (Homo sapiens, UniProt P50391); assay: ^125I-PYY binding to membranes, cloned human Y4 receptor; conditions: read-out: Binding Affinity Ki vs. ^125I-PYY, Human Receptor Y4; Table 14; stably transfected LM(tk-) cells
T1 construct: expressed in transfected cells; host or cells: COS-7 (transient)

human Y5 receptor = target: T2, human Y5 receptor (Homo sapiens, UniProt Q15761); assay: Radioimmunoassay of cAMP, cells stably expressing human Y5 receptor; assay type: cell-based; parameters: Ki Values, Human Y5; apparent Kd; pKd; The isolated clone (CG-19) turned out to contain a full length cDNA; The longest open reading frame encodes a 455 amino acid protein; conditions: block of NPY-induced inhibition of cAMP accumulation, forskolin-stimulated LM(tk-) cells, human Y5
T2 sequence (Q15761 1-445): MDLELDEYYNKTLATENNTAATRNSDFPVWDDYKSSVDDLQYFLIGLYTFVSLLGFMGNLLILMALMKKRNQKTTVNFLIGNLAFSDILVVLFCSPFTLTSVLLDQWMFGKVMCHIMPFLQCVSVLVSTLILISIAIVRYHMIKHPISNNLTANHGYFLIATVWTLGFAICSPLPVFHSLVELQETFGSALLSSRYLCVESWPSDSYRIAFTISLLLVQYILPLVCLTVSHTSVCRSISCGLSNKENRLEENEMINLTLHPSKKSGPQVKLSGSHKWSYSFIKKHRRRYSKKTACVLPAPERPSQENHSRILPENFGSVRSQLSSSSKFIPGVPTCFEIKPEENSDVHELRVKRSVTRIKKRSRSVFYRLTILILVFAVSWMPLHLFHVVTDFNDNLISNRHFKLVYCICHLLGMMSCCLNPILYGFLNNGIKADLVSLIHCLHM
Experimental: LM(tk-) cells stably transfected with the human Y5 receptor were routinely converted from an adherent monolayer to a viable suspension. […] The cell suspension was maintained in a shaking incubator at 37° C., 5% CO2 for 24 hours. […] Alternatively, cells may be returned to adherent cell culture in complete DMEM by distribution into 96-well microtiter plates coated with poly-D-lysine (0.01 mg/ml) followed by incubation at 37° C., 5% CO2 for 24 hours.
The maximum inhibition of cAMP accumulation (Emax) and the concentration producing a half-maximal effect (EC50) were determined by nonlinear regression analysis according to a 4 parameter logistic equation.
The ability of the compounds to antagonize the Y-type receptors is reported as the Kb. […] The results shown are representative of at least three independent experiments.

α1b = target: T3, α1b (Homo sapiens, UniProt P35368); assay: Binding at cloned human α1b adrenergic receptor
T3 sequence (P35368 1-520): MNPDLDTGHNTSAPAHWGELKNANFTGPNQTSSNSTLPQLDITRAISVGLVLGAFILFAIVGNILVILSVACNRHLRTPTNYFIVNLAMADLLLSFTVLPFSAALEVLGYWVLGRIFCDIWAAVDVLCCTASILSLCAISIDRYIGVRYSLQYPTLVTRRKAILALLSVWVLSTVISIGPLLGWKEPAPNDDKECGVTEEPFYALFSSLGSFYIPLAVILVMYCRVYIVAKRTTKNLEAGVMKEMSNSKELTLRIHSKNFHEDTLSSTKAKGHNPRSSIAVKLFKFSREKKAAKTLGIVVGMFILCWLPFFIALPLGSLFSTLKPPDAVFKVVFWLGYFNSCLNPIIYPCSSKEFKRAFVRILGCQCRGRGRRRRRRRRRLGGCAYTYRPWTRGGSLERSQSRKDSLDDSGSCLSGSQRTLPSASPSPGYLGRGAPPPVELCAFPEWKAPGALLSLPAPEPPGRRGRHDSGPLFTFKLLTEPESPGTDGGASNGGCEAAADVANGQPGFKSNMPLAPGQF

5HT7 = 5HT7 (Homo sapiens, UniProt P34969); assay: Binding at cloned human 5HT7 receptor
human Y1 receptor = target: T4, human Y1 receptor (Homo sapiens, UniProt P25929); assay: ^125I-PYY binding to membranes, cloned human Y1 receptor; conditions: read-out: Binding Affinity Ki vs. ^125I-PYY, Human Receptor Y1; Table 14; stably transfected 293 cells (compound 1 also COS-7)
T4 construct: expressed in transfected cells; host or cells: COS-7 (transient)
T4 sequence (P25929 1-384): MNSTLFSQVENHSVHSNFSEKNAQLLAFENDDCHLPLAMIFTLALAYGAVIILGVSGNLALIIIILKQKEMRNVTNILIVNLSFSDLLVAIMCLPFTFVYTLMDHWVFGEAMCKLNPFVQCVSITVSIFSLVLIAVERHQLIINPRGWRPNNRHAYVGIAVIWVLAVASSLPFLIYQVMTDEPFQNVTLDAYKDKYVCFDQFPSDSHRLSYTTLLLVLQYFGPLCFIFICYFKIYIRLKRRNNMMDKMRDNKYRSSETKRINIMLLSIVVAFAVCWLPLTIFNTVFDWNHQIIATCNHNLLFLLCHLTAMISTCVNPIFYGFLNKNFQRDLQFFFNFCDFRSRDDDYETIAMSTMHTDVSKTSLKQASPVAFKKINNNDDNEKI

α2b = target: T5, α2b (Homo sapiens, UniProt P18089); assay: Binding at cloned human α2b adrenergic receptor
T5 sequence (P18089 1-450): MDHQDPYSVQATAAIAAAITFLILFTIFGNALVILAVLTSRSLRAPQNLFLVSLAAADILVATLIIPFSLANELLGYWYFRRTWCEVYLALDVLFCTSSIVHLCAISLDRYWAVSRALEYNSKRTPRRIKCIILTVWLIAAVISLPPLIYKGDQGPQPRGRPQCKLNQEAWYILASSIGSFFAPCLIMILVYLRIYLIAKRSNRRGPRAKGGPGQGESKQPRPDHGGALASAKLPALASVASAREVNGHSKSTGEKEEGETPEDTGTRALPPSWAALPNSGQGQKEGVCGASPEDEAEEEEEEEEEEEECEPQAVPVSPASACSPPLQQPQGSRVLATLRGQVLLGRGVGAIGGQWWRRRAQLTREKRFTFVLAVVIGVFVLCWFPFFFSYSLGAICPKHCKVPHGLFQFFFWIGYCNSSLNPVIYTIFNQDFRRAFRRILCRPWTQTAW

α2c = target: T6, α2c (Homo sapiens, UniProt P18825); assay: Binding at cloned human α2c adrenergic receptor; conditions: cloned human receptor
T6 sequence (P18825 1-462): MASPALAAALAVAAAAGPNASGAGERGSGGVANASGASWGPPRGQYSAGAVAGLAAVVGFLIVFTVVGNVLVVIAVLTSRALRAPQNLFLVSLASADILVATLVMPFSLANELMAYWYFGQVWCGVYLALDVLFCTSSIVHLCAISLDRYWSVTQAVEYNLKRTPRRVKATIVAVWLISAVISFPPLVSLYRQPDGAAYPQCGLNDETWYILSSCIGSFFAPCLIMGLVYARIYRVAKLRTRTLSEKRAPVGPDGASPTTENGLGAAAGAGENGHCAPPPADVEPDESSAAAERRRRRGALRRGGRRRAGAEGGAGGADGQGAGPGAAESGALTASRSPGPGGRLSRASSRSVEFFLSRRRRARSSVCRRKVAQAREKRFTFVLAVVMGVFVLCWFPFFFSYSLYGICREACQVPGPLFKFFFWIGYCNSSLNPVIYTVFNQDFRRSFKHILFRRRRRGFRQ

5HT1Dβ = target: T7, 5HT1Dβ (Homo sapiens, UniProt P28222); assay: Binding at cloned human 5HT1Dβ receptor
T7 construct: expressed in transfected cells; host or cells: LM(tk-), line Ltk-11 (ATCC CRL 10422)
T7 sequence (P28222 whole entry): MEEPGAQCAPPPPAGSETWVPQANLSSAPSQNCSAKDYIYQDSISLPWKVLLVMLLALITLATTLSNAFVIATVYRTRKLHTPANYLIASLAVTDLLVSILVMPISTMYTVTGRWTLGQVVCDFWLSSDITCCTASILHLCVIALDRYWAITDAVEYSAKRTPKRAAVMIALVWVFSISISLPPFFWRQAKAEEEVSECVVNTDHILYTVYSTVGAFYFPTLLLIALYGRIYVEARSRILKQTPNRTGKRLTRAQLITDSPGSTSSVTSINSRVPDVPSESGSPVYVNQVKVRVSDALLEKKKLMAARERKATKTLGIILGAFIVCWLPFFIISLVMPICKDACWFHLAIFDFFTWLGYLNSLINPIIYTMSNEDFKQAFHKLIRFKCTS
Experimental: The cell line for the 5HT1Dα receptor, designated as Ltk-8-30-84, was deposited on Apr. […] The cell for the 5HT1Dβ receptor, designated as Ltk-11, was deposited on Apr. […] Membrane preparations comprising these receptors were prepared as described below, and suspended in 50 mM Tris-HCl buffer (pH 7.4 at 37° C.) containing 10 mM MgCl2, 0.2 mM EDTA, 10 μM pargyline, and 0.1% ascorbate. The binding of compounds was determined in competition binding assays by incubation for 30 minutes at 37° C. in the presence of 5 nM [^3H]serotonin. Nonspecific binding was determined in the presence of 10 μM serotonin.

T1 sequence (P50391 whole entry): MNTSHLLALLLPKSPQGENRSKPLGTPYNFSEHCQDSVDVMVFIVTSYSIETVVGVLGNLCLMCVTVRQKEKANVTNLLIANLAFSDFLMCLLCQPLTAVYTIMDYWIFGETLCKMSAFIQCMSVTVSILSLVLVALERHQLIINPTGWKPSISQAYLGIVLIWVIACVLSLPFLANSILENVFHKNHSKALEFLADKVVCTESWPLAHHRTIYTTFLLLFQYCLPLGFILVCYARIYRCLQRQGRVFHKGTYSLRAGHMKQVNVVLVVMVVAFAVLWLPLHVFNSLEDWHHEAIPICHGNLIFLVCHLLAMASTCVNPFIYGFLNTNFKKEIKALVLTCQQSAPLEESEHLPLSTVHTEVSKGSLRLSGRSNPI
5HT7, sequence (P34969 1-445 isoform P34969-2): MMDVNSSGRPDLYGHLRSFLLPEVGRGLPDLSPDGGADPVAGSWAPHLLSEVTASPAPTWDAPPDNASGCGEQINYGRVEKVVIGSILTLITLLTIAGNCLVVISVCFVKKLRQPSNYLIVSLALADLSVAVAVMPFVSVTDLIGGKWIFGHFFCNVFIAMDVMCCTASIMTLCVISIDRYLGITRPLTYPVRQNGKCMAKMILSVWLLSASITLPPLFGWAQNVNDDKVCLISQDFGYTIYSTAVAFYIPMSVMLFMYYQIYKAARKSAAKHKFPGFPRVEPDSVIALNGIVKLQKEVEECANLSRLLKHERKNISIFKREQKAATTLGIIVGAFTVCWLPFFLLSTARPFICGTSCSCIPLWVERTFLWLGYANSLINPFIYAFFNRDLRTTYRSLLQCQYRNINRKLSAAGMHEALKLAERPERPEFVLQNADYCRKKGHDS

Structure (SMILES) | Ki (human Y4 receptor) | Kb (human Y5 receptor) | pKi α1b (α1b) | pKi 5HT7 (5HT7) | Ki (human Y1 receptor) | pKi α2b (α2b) | pKi α2c (α2c) | pKi 5HT1Dβ (5HT1Dβ)
Cl.O=S(=O)(NC[C@H]1CC[C@H](CNCC2CCc3ccccc3C2)CC1)c1cccc2ccccc12 (mixture of isomers) [Compound 19] | 11.7 µM | 0.023 µM | 7.35 | 6.42 | 3.55 µM | 6.58 | – | –
Cl.O=[N+]([O-])c1ccccc1S(=O)(=O)NC[C@H]1CC[C@H](CNCC2CCc3ccccc3C2)CC1 (mixture of isomers) [Compound 20] | 20.4 µM | 0.026 µM | 7.22 | 6.37 | 16 µM | 6.96 | 7.39 | 5.37
Cl.Cl.Nc1ccccc1S(=O)(=O)NC[C@H]1CC[C@H](CNCC2CCc3ccccc3C2)CC1 (mixture of isomers) [Compound 22] | 27.5 µM | 0.003 µM | 6.98 | 6.39 | 17.2 µM | 6.43 | 7.15 | 5.41
